Series [1] in a line: Acidity constants of ligands in water.
Series [2] concerns wildtype TIM. The following applies: compared with D-GAP; ref [30]; cited from earlier work.
For another series, the target named is T1, Y208F yTIM (Saccharomyces cerevisiae, UniProt P00942, Y208F).
T1 sequence (P00942 1-248 Y208F): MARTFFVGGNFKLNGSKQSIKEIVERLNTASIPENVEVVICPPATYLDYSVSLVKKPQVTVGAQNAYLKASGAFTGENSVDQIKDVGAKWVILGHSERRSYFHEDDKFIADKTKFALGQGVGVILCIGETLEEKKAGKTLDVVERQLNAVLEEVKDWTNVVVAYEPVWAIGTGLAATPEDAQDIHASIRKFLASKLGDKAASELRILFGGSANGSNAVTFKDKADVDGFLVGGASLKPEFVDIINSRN
Kind of series: TIM-catalyzed isomerization of GAP. Type of series: biochemical, yeast.

Series [3] can be described thus: Storage stability of PGA stock solutions. Type of series: physicochemical. Particulars: solutions at pH 7.5 stored at −20 °C.
In series [4] the target is T2, wildtype TbbTIM (Trypanosoma brucei brucei, UniProt P04789). In kind it is biochemical. Particulars: deprotonation of EH·I^3–; estimated from (Ki)E·KEHI and (Ki)E.
A further series has as its target P166A TbbTIM (Trypanosoma brucei brucei, UniProt P04789, P168A). Put plainly: TIM-catalyzed isomerization of GAP. In kind it is biochemical. Particulars: difference to wildtype enzyme.
The next series addresses wildtype cTIM (Gallus gallus, UniProt P00940). Kind of series: TIM-catalyzed isomerization of GAP. Type of series: biochemical, chicken. The following applies: deprotonation of EH·I^3–; estimated from (Ki)E·KEHI and (Ki)E.
For series [5], the target named is L7R cTIM (loop 7 replacement) (Gallus gallus, UniProt P00940, G210A/S211G/Y208T). Put plainly: TIM-catalyzed isomerization of GAP. In kind it is biochemical, chicken.
Chain of L7R cTIM (loop 7 replacement) (P00940 whole entry Y208T/G210A/S211G): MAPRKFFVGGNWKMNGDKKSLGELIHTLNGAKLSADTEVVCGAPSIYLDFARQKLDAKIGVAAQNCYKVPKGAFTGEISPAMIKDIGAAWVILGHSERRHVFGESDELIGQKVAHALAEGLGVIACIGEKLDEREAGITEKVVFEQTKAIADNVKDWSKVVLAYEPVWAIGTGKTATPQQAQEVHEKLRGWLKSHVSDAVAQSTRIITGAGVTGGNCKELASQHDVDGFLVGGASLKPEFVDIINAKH
The next series concerns the target T3, S211A yTIM (Saccharomyces cerevisiae, UniProt P00942, S211A).
T3 sequence (P00942 1-248 S211A): T1 sequence (P00942 1-248 Y208F) with F208Y, S211A
Put plainly: TIM-catalyzed isomerization of GAP. In kind it is biochemical, yeast.

The target in a further series is mutant TIMs. Put plainly: Binding of PGA trianion to mutant TIMs, summary of Table 1. Particulars: read-out: (Ki)E; range over mutant TIMs. Type of series: biochemical.
The target of series [6] is T4, I170A TbbTIM (Trypanosoma brucei brucei, UniProt P04789, I172A). Kind of series: TIM-catalyzed isomerization of GAP. Type of series: biochemical.
The target of series [7] is T4, I170A TbbTIM. The following applies: deprotonation of EH·I^3–; ref [14]; cited from earlier work.
The target of series [8] is T2, wildtype TbbTIM. The following applies: pH profile linear through pH 9.7; ref [14]; cited from earlier work.
For series [9] the following is noted: ref [20]; cited from earlier work.
In series [10] the test system is wildtype TIM. Put plainly: Binding of PGA trianion to wildtype TIMs, summary of Table 1. Type of series: biochemical.
[11] abbreviates: (Ki)E, release of PGA trianion from E^–·I^3–, fit to eq 7.
[12] abbreviates: deprotonation of EH·I^3–, fit to eq 7.

Here are results for three compounds from publication PMC6037162 (Journal of the American Chemical Society, 2018).

Where a chain is given by its changes, count along the chain named. “And” between values parts separate entries of the source, which are not always exact repeats. Equal entries are not always repeated.

Chain of wildtype cTIM (P00940 whole entry): as the sequence (P00940 whole entry Y208T/G210A/S211G) above, with T208Y, A210G, G211S counted along it

Usually pKa stands for the negative logarithm of the acid dissociation constant. Lower therefore signals a group that gives up its proton readily. In series [1], `O=C[C@H](O)COP(=O)(O)O` [GAP, D-Glyceraldehyde 3-phosphate] showed a pKa of 6 ± 0.1.

Take `O=C[C@@H](O)COP(=O)(O)O` [L-GAP]: the “binding to TIM” value in the series with wildtype TIM [2] was “binds much more weakly to TIM than D-GAP”.

A word on the Ki: it is a dissociation constant, usually derived from enzyme kinetics or from competition with a known ligand. Regarding `O=C(O)COP(=O)(O)O` [PGA, 2-Phosphoglycolic acid], the Ki at Y208F yTIM (setting [11]) is 16 mM; at Y208F yTIM (log (Ki)E), 15.8 mM; in [5], 2.6 mM; on S211A yTIM (setting [11]), 20 mM and 24 mM; at mutant TIMs, 3 to 30 mM; at I170A TbbTIM [6], 7.94 mM. For the same compound, the KEHI is 4.9 × 10^–7 M on Y208F yTIM (setting [12]); 1.2 × 10^–11 M on wildtype TbbTIM [4]; 2.9 × 10^–11 M at wildtype cTIM; 1.8 × 10^–7 M in series [5] (setting [12]); 1.9 × 10^–8 M at I170A TbbTIM [7]. Further, the “Δ(pK)EHI” value on Y208F yTIM (difference to wildtype enzyme) stood at 4.1; at P166A TbbTIM, 0.7; in [5] (difference to wildtype enzyme), 3.8; at S211A yTIM (difference to wildtype enzyme), 2.2; on I170A TbbTIM [6] (difference to wildtype enzyme), 2.3. For the same compound, the “stability toward hydrolysis of the phosphoryl group” value in series [3] was “at least 6 months”. Moreover, on wildtype TbbTIM [8], the “pKEHI for release of a proton from the EH·I^3– complex” value is over 10. Besides, the “pKa for loss of a proton from PGA dianion to form PGA trianion” value in series [9] is listed as 6.3. The “binding energy for formation of E^–·I^3–” value in the series on wildtype TIM [10] (from (Ki)E) is 3 kcal/mol. In addition, in the series on wildtype TIM [10] (from (Ki)EH), the “binding energy of I^3– to EH” value was in the range of 11.1 to 11.8 kcal/mol.
